Test results published in ChEMBL document CHEMBL4665683, “Oxygenated Geosmins and Plant-like Eudesmanes from a Bacterial Mangrove Endophyte” (2020).

How the values were obtained:
Format in all cases: functional
Staphylococcus aureus [1] = assay: Antibacterial activity against Staphylococcus aureus SG511 assessed as zone of inhibition after 24 hrs by disk diffusion method
Pseudomonas aeruginosa [2] = assay: Antibacterial activity against Pseudomonas aeruginosa BG137 B7 assessed as zone of inhibition after 24 hrs by disk diffusion method
Mycolicibacterium vaccae = assay: Antibacterial activity against Mycobacterium vaccae IMET 10670 assessed as zone of inhibition after 24 hrs by disk diffusion method
Pseudomonas aeruginosa [3] = assay: Antibacterial activity against Pseudomonas aeruginosa K799/61 assessed as zone of inhibition after 24 hrs by disk diffusion method
Enterococcus faecalis = assay: Antibacterial activity against vancomycin-resistant Enterococcus faecalis 1528 R10 assessed as zone of inhibition after 24 hrs by disk diffusion method
Escherichia coli = assay: Antibacterial activity against Escherichia coli SG458 assessed as zone of inhibition after 24 hrs by disk diffusion method
Staphylococcus aureus [4] = assay: Antibacterial activity against methicillin-resistant Staphylococcus aureus 134/94 R9 assessed as zone of inhibition after 24 hrs by disk diffusion method
Bacillus subtilis = assay: Antibacterial activity against Bacillus subtilis ATCC 6633 assessed as zone of inhibition after 24 hrs by disk diffusion method
[5] = system: Sporobolomyces salmonicolor; assay: Antifungal activity against Sporidiobolus salmonicolor SBUG 549 assessed as zone of inhibition after 24 hrs by disk diffusion method
Penicillium chrysogenum = assay: Antifungal activity against Penicillium chrysogenum JP36 assessed as zone of inhibition after 24 hrs by disk diffusion method

Compound | inhibition zone (IZ) (Staphylococcus aureus [1]) | inhibition zone (IZ) (Pseudomonas aeruginosa [2]) | inhibition zone (IZ) (Mycolicibacterium vaccae) | inhibition zone (IZ) (Pseudomonas aeruginosa [3]) | inhibition zone (IZ) (Enterococcus faecalis) | inhibition zone (IZ) (Escherichia coli) | inhibition zone (IZ) (Staphylococcus aureus [4]) | inhibition zone (IZ) (Bacillus subtilis) | inhibition zone (IZ) [5] | inhibition zone (IZ) (Penicillium chrysogenum)
O=C(N[C@H](CO)[C@H](O)c1ccc([N+](=O)[O-])cc1)C(Cl)Cl [CHLORAMPHENICOL] | 17 mm | 24 mm | 20 mm | 24 mm | 17 mm | 23 mm | 0 mm | 29 mm | – | –
C[C@H]1C(=O)CC[C@@]2(C)CCCC[C@]12O | 0 mm | 10 mm | 0 mm | 10 mm | 10 mm | 0 mm | 0 mm | 10 mm | 0 mm | 0 mm
C[C@H]1CCC[C@@]2(C)CC[C@@H](O)C[C@]12O | 0 mm | 10 mm | 0 mm | 10 mm | 0 mm | 10 mm | 0 mm | 10 mm | 0 mm | 0 mm
C[C@H]1CCC[C@@]2(C)CC[C@@H](C(C)(C)O)C[C@]12O | 12 mm | 11 mm | 14 mm | 11 mm | 11 mm | 10 mm | 11 mm | 12 mm | 12 mm | 12 mm
C[C@@H]1[C@H](O)[C@@H](C)/C=C/C=C/C=C/C=C/C=C/C=C/C=C/[C@H](O[C@@H]2O[C@H](C)[C@@H](O)[C@H](N)[C@@H]2O)C[C@@H]2O[C@](O)(C[C@@H](O)C[C@@H](O)[C@H](O)CC[C@@H](O)C[C@@H](O)CC(=O)O[C@H]1C)C[C@H](O)[C@H]2C(=O)O [AMPHOTERICIN B] | – | – | 13 mm | – | – | – | – | – | 13 mm | 17 mm
